Reference: patent publication US10414763B2 (CANCER RESEARCH TECHNOLOGY LIMITED, priority 2014, dated 2019)

Molecular target: T1, full-length human PKCι (Homo sapiens, UniProt P41743)
T1 construct: Recombinant, full-length human PKCι expressed in Sf21 insect cells is also commercially available; purchased EMD Millipore; host or cells: Sf21 insect cells (baculovirus)
T1 sequence (P41743 1-596): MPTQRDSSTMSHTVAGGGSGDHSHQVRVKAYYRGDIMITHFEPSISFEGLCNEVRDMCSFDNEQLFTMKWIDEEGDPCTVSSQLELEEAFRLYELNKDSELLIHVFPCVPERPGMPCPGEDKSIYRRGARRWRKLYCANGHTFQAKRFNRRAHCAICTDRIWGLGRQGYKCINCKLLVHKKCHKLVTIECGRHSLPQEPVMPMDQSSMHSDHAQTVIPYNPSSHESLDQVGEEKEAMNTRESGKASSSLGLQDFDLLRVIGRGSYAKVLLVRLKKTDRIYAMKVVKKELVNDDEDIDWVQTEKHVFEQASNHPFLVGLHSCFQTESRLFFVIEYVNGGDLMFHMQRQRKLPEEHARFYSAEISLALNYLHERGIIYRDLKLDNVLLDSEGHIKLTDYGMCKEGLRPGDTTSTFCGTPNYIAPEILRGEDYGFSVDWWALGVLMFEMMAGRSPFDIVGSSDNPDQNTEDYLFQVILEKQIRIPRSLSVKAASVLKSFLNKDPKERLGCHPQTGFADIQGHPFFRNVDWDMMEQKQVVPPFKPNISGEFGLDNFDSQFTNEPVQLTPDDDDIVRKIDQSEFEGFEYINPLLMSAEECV
Test: PKCι IC50 IMAP fluorescence polarisation assay, full-length enzyme, 150 μM ATP
Assay type: biochemical
Conditions: read-out: IC50 in IMAP assay against full length PKCi at 150 μM ATP
How it was run: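 IMAP fluorescence polarisation kinase assay: 15 pM baculovirus-expressed human PKCiota with 100 nM FAM-pseudosubstrate peptide and 150 μM ATP, 1 h at 25 °C. IMAP detection reagent then 2 h at 25 °C before FP measurement. Inhibition referenced to no-compound and no-enzyme controls for IC50 fitting.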

| SMILES | IC50 [nM] |
| --- | --- |
| CC1(C)CNCC[C@@H]1Nc1nc(-c2ccnc(Nc3ccc(F)cn3)c2)nc2cncc(C3CC3)c12 [Example 393, {5-Cyclopropyl-2-[2-(5-fluoro-pyridin-2-ylamino)-pyridin-4-yl]-pyrido[3,4-d]pyrimidin-4-yl}-((S)-3,3-dimethyl-piperidin-4-yl)-amine] | < 100 |
| CC1(C)CNCC[C@@H]1Nc1nc(-c2ccnc3[nH]c(-c4ccccc4F)cc23)nc2cncc(C3CC3)c12 [Example 394, {5-Cyclopropyl-2-[2-(2-fluoro-phenyl)-1H-pyrrolo[2,3-b]pyridin-4-yl]-pyrido[3,4-d]pyrimidin-4-yl}-((S)-3,3-dimethyl-piperidin-4-yl)-amine] | < 100 |
| CC1(C)CNCC[C@@H]1Nc1nc(-c2ccnc3[nH]c(-c4cccnc4)cc23)nc2cncc(C3CC3)c12 [Example 395, [5-Cyclopropyl-2-(2-pyridin-3-yl-1H-pyrrolo[2,3-b]pyridin-4-yl)-pyrido[3,4-d]pyrimidin-4-yl]-((S)-3,3-dimethyl-piperidin-4-yl)-amine] | < 100 |
| CN(c1nc(-c2ccnc3[nH]c(-c4ccccc4F)cc23)nc2cncc(C3CC3)c12)[C@H]1CCNCC1(C)C [Example 396, {5-Cyclopropyl-2-[2-(2-fluoro-phenyl)-1H-pyrrolo[2,3-b]pyridin-4-yl]-pyrido[3,4-d]pyrimidin-4-yl}-((S)-3,3-dimethyl-piperidin-4-yl)-methyl-amine] | < 100 |

The next lines start with the values.

| IC50 [nM] | SMILES |
| --- | --- |
| < 100 | CC1(C)CNCC[C@@H]1Nc1nc(-c2ccnc(Nc3ncccc3F)c2)nc2cncc(C3CC3)c12 [Example 390, {5-Cyclopropyl-2-[2-(3-fluoro-pyridin-2-ylamino)-pyridin-4-yl]-pyrido[3,4-d]pyrimidin-4-yl}-((S)-3,3-dimethyl-piperidin-4-yl)-amine] |
| < 100 | CC1(C)CNCC[C@@H]1Nc1nc(-c2ccnc(Nc3ncc(F)cc3F)c2)nc2cncc(C3CC3)c12 [Example 391, {5-Cyclopropyl-2-[2-(3,5-difluoro-pyridin-2-ylamino)-pyridin-4-yl]-pyrido[3,4-d]pyrimidin-4-yl}-((S)-3,3-dimethyl-piperidin-4-yl)-amine] |
| < 100 | CC1(C)CNCC[C@@H]1Nc1nc(-c2ccnc(Nc3cc(F)ccn3)c2)nc2cncc(C3CC3)c12 [Example 392, {5-Cyclopropyl-2-[2-(4-fluoro-pyridin-2-ylamino)-pyridin-4-yl]-pyrido[3,4-d]pyrimidin-4-yl}-((S)-3,3-dimethyl-piperidin-4-yl)-amine] |
